Reference: patent US20100041704A1, “DERMAL COMPOSITIONS OF SUBSTITUTED AMIDES AND THE USE THEREOF AS MEDICATION FOR PAIN AND PRURITUS” (priority 2007, published 2010)
Counter-ions that a name gives are not always drawn.

Experiments:
[1] = saturation solubility in topical solvents/penetration enhancers; type: physicochemical
Protocol: Melting point ranges were determined with a capillary apparatus (Stuart) using a heating rate of 1° C./min. Moisture was measured using Karl Fischer titration (Schott TitroLine KF). Solubility was measured by adding an excess of solid to the solvent and allowing this suspension to equilibrate at 19-21° C. for at least 24 hours. […]
Solubility was measured by adding an excess of solid to the solvent and allowing this suspension to equilibrate at 19-21° C. for at least 24 hours. […]

[2] = system: guinea pigs (dermal anesthesia); assay: potentiation study: dermal anesthesia in guinea pigs, pinprick methodology; type: in vivo; conditions: guinea pigs N=8
[3] = concentrations up to 0.075 percent (Mason L et al. 2004); cited from earlier work
[4] = system: sciatic nerve; assay: sciatic nerve block in the rat, duration by algesimeter; type: in vivo; conditions: for duration of sensory nerve block / local anesthesia: injection of 0.5% solution, N=10-12
[5] = system: New Zealand White rabbits (skin); assay: dermal irritation studies; type: in vivo, rabbit; conditions: DMSO at lower concentrations (<90%) in combination with bupivacaine or ropivacaine
Protocol: Dermal irritation studies are performed in male and female New Zealand White rabbits (Harlan). This albino rabbit is recommended as the preferred species because of its size, skin permeability and extensive database. The number of animals being used in these studies is consistently increasing as new compositions are tested and previously tested compositions are being retested as references. Within 24 hours before the initiation of the test, fur is removed from the upper and lower dorsal trunks by clipping. Care is taken to avoid abrading the skin and only animals with healthy intact skin are being used. Histamine is used as the pruritic irritant. The compositions to be tested are applied to the skin of the animals for 60 min (±5 min). The new compositions, with or without bupivacaine 5 to 10 percent, are applied on 6-ply gauze pads (4.5 cm×4.5 cm) and held in place with Tegaderm® dressing for the entire exposure duration. After the exposure period, residual test article is removed with water or other appropriate solvent, without altering the existing response or the integrity of the epidermis. Prior to dosing and repeatedly post dosing, dermal irritation is scored for erythema/eschar and edema.

[6] = system: mice with diet-induced pruritus; assay: pruritus model: mice fed diet low in Mg2+ and Zn2+, scratching; conditions: mouse, in vivo
[7] = system: nerve ligation model in the rat (L5 and L6 spinal roots of the sciatic nerve); assay: nerve ligation model of neuropathic pain in the rat (tail flick, pinprick allodynia); type: in vivo; conditions: for activity in animal model of neuropathic pain: rat nerve ligation model
[8] = saturation solubility in pentane (model propellant); type: physicochemical; conditions: base
Source text: In addition to the solubility experiments shown above, the solubilities of bupivacaine and ropivacaine were also investigated using pentane since this is a low molecular weight hydrocarbon, commonly used to model a GRAS (generally recognized as safe) aerosol propellant such as butane.

[9] = system: human leukocytes (buffy coat); assay: inhibition of A23187-stimulated histamine release from human leukocytes; type: cell-based; conditions: A23187 5 μM, 20 min/37° C.
Protocol: In the present studies, histamine was the marker compound for algesic mediators that are released into the tissues of patients suffering from neuropathic pain. The inhibition of stimulated histamine release from human leukocytes (buffy coat) by test articles was studied. Leukocytes were obtained from healthy volunteers and histamine release was induced by incubation (20 min/37° C.) with the calcium ionophore A23187 (5 μM) in the presence or absence of a test article. Histamine was analyzed by enzyme-immuno assays, using commercially available kits and a microplate reader (MRX, Dynatech).

[10] = ternary solvent mixtures with water as anti-solvent; type: physicochemical; conditions: 1 ml polyethylene glycol + 1 ml ethanol, presence of 0.6 ml water
[11] = in diisopropyl adipate, 19-21° C., at least 24 hours, HPLC
[12] = in ethanol, 19-21° C., at least 24 hours, HPLC
[13] = in hexylene glycol, 19-21° C., at least 24 hours, HPLC
[14] = in isopropyl alcohol, 19-21° C., at least 24 hours, HPLC
[15] = in isopropyl myristate, 19-21° C., at least 24 hours, HPLC
[16] = in propylene glycol, 19-21° C., at least 24 hours, HPLC

With `CCCCN1CCCC[C@H]1C(=O)Nc1c(C)cccc1C` (single isomer, unassigned) [Isomer free base] the “Solubility of bupivacaine (% w/w)” value [1, 11] was 2.7 % w/w, the “Solubility of bupivacaine (% w/w)” value [1, 12] was 16.5 % w/w and the “Solubility of bupivacaine (% w/w)” value [1, 13] was 8.0 % w/w. For the same compound, the “Solubility of bupivacaine (% w/w)” value [1, 14] was 8.9 % w/w, the “Solubility of bupivacaine (% w/w)” value [1, 15] was 1.6 % w/w and the “Solubility of bupivacaine (% w/w)” value [1, 16] was 2.1 % w/w.
With `CCCCN1CCCC[C@H]1C(=O)Nc1c(C)cccc1C` (single isomer, unassigned) [Isomer HCl monohydrate] the “Solubility of bupivacaine (% w/w)” value ([1]; in ethanol, determined gravimetrically) was 3.8-4.4^1 % w/w.
In the case of `COc1cc(CNC(=O)CCCC/C=C/C(C)C)ccc1O` [capsaicin], the “dermal anesthesia (in words)” value ([2]; capsaicin alone, low dose) is given as “too low to result in measurable dermal anesthesia” and the “efficacy of dermal capsaicin” value [3] is given as “only marginally effective”.
In the case of `Cc1cccc(C)c1NC(=O)C1CCCCN1C` (stereo not shown) [mepivacaine], the “duration of sensory nerve block / local anesthesia” value ([4]; algesimeter (5 gram), rat) is reported as “approximately 40 min”.
For `CCCCN1CCCCC1C(=O)Nc1c(C)cccc1C.Cl.O` (racemic) [Racemic HCl monohydrate], the “Solubility of bupivacaine (% w/w)” value [1, 12] was 4.3 % w/w, the “Solubility of bupivacaine (% w/w)” value [1, 13] was 2.1 % w/w and the “Solubility of bupivacaine (% w/w)” value [1, 14] was 0.5 % w/w. For the same compound, the “Solubility of bupivacaine (% w/w)” value [1, 16] was 3.2 % w/w.
In the case of `CCCCN1CCCCC1C(=O)Nc1c(C)cccc1C` (racemic) [Racemic free base], the “Solubility of bupivacaine (% w/w)” value [1, 11] is reported as 6.2 % w/w, the “Solubility of bupivacaine (% w/w)” value [1, 12] is reported as 36.8 % w/w and the “Solubility of bupivacaine (% w/w)” value [1, 13] is reported as 17.8 % w/w. For the same compound, the “Solubility of bupivacaine (% w/w)” value [1, 14] was 20.5 % w/w, the “Solubility of bupivacaine (% w/w)” value [1, 15] was 3.5 % w/w and the “Solubility of bupivacaine (% w/w)” value [1, 16] was 4.8 % w/w.
With `C[S+](C)[O-]` [DMSO, Dimethyl sulfoxide] the “dermal irritation of DMSO with local anesthetic” value [5] was “do not cause increased dermal irritation”.
With `CCCCN1CCCCC1C(=O)Nc1c(C)cccc1C` (stereo not shown) [bupivacaine HCl] the “duration of sensory nerve block” value ([4]; injection of 0.25% solution, algesimeter (5 gram), rat) was 70 ± 5 min and the “duration of sensory nerve block / local anesthesia” value ([4]; algesimeter (5 gram), rat) was 99 ± 7 min.
For `CCCN1CCCCC1C(=O)Nc1c(C)cccc1C` (stereo not shown) [ropivacaine, RS—N-(2,6-dimethylphenyl)-1-propylpiperidine-2-carboxamide], the “antipruritic activity / safety and efficacy in animal model of pruritus” value [6] was “antipruritic activity”, the “activity in animal model of neuropathic pain” value [7] was “had activity” and the “Saturation solubility in pentane” value [8] was greater than 0.1%.
For `CCN(CC)CC(=O)Nc1c(C)cccc1C` [lidocaine], the “activity in animal model of neuropathic pain” value [7] was “had activity” and the “duration of sensory nerve block / local anesthesia” value ([4]; algesimeter (5 gram), rat) was “approximately 40 min”.
For `CCCCN1CCCCC1C(=O)Nc1c(C)cccc1C` (stereo not shown) [bupivacaine, RS—N-(2,6-dimethylphenyl)-1-butylpiperidine-2-carboxamide], the “duration of dermal anesthesia” value ([2]; 5% in DMSO/water in a dermal patch, applied for 60 min, pinprick) was 60 ± 5 min, the “antipruritic activity / safety and efficacy in animal model of pruritus” value [6] was “antipruritic activity” and the “inhibition of stimulated histamine release” value [9] was “significant inhibitory activity”. The “potency on histamine release compared with lidocaine” value [9] was “more potent than lidocaine”, the “duration of analgesic activity compared with lidocaine” value ([7]; neuropathic pain model, single administration) was “longer duration than that offered by lidocaine” and the “pain relief after repeated administrations” value ([7]; repeated administrations) was “long-lasting (days not hours) pain relief”. For the same compound, the “anti-allodynic effect (paw withdrawal, pinprick)” value ([7]; single systemic administration (0.5%), algesimeter set at 5 grams) was “prolonged anti-allodynic effect”, the “analgesia, tail-flick test method” value ([7]; single systemic administration of bupivacaine (0.5%) three days after nerve ligation, tail flick in warm (140° F.) water) was 100% and the “Saturation solubility in pentane” value [8] was greater than 0.1%. The “dose causing motor nerve blocks after injections” value ([4]; after injections, doses as low as) was no less than 0.1%.
With `CCCN1CCCC[C@H]1C(=O)Nc1c(C)cccc1C` [S-ropivacaine free base] the “solubility in ternary solvent mixture with water as anti-solvent” value [10] was “dramatically decreased”, the “Solubility, % w/w” value ([1]; S-ropivacaine free base in diisopropyl adipate, 19-21° C., at least 24 hours) was 1.7 % w/w and the “Solubility, % w/w” value ([1]; S-ropivacaine free base in ethanol, 19-21° C., at least 24 hours) was 10.0 % w/w. The “Solubility, % w/w” value ([1]; S-ropivacaine free base in hexylene glycol, 19-21° C., at least 24 hours) was 5.1 % w/w, the “Solubility, % w/w” value ([1]; S-ropivacaine free base in isopropyl alcohol, 19-21° C., at least 24 hours) was 5.2 % w/w and the “Solubility, % w/w” value ([1]; S-ropivacaine free base in isopropyl myristate, 19-21° C., at least 24 hours) was 0.9 % w/w. For the same compound, the “Solubility, % w/w” value ([1]; S-ropivacaine free base in propylene glycol, 19-21° C., at least 24 hours) was 1.6 % w/w and the “solubility compared with bupivacaine free base” value ([1]; all solvents of Table 6) was “consistently lower”.
